Structures can show the parent of a compound that is named as a salt.

Sequence of human activated kallikrein enzyme (P03952 391-638 limits assumed): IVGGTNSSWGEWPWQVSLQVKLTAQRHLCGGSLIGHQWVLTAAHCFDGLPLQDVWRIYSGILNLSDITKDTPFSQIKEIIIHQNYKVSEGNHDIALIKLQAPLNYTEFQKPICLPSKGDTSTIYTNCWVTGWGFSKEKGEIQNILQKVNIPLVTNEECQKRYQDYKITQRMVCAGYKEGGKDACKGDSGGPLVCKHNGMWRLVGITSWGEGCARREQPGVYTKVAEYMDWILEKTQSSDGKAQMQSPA
Sequence of human activated kallikrein enzyme (P03952 20-390 partner limits assumed): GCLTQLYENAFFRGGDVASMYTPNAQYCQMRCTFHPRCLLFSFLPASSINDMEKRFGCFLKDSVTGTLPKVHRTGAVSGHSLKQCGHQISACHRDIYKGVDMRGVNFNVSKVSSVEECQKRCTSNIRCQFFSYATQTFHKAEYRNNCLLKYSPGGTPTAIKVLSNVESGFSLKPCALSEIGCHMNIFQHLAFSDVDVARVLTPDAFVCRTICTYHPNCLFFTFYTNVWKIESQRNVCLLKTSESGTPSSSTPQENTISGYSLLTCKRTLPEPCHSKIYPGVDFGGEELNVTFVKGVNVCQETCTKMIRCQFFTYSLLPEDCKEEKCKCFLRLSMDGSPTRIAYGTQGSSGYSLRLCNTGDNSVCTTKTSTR

The test has as its target human activated kallikrein enzyme (Homo sapiens, UniProt P03952). Kind of test: Inhibition of human activated plasma kallikrein, fluorogenic PFR-AMC substrate, 500 pM enzyme format. Type of test: biochemical. The settings on record: 500 pM activated kallikrein; 300 μM PFR-AMC; 30 min preincubation; 10 min room temperature; pH 7.5; read-out: Primary Dose Response Assay: Average EC50. Put shortly: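 500 pM activated kallikrein preincubated 30 min at room temperature with inhibitors in pH 7.5 Tris/EDTA/NaCl buffer with PEG-400 and Triton X-100. Reaction started with 300 μM PFR-AMC, run 10 min at room temperature; AMC fluorescence read at ex 380/em 460 nm.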
Take `Cc1cc2c(N)nccc2c(C)c1CNc1cc2c(Cc3ccc4ccccc4c3)c[nH]c2cn1` [Example 526, 5,7-dimethyl-6-(((3-(naphthalen-2-ylmethyl)-1H-pyrrolo[2,3-c]pyridin-5-yl)amino)methyl)isoquinolin-1-amine]: the EC50 was > 1000 nM.
The result for `Cc1cc2c(N)nccc2c(C)c1CNc1cc(OCc2ccc(Cc3cccn(C)c3=O)cc2)cnn1` [Example 440, 3-(4-(((6-(((1-amino-5,7-dimethylisoquinolin-6-yl)methyl)amino)pyridazin-4-yl)oxy)methyl)benzyl)-1-methylpyridin-2(1H)-one] reads < 1 nM; that for `Cc1cc2c(N)nccc2c(C)c1CNC(=O)c1cnn(Cc2ccc(CC(=O)N3C[C@@H]4[C@H](CO)[C@@H]4C3)cc2)c1` [Example 209, N-((1-amino-5,7-dimethylisoquinolin-6-y1)methyl)-1-(4-(2-((1R,5S,6s)-6-(hydroxymethyl)-3-azabicyclo[3.1.0]hexan-3-y1)-2-oxoethyl)benzyl)-1H-pyrazole-4-carboxamide], < 1 nM.
In the case of `Cc1cc2c(N)nccc2c(C)c1CNc1cc(OCc2cn3cc(C4CC4)ccc3n2)nc(CCC(=O)O)n1` [Example 293, 3-(4-(((1-amino-5,7-dimethylisoquinolin-6-yl)methyl)amino)-6-((6-cyclopropylimidazo[1,2-a]pyridin-2-yl)methoxy)pyrimidin-2-yl)propanoic acid], the EC50 was < 1 nM.
To `Cc1cc2c(N)nccc2c(C)c1CNC(=O)c1cnn(Cc2cn3c(Br)cccc3n2)c1` [Example 139, N-((1-amino-5,7-dimethylisoquinolin-6-yl)methyl)-1-((5-bromoimidazo[1,2-a]pyridin-2-yl)methyl)-1H-pyrazole-4-carboxamide] belongs < 1 nM; to `Cc1cc2c(N)nccc2c(C)c1CNc1cc(NCc2nc3ccccc3s2)ncn1` [Example 319, N^4-((1-amino-5,7-dimethylisoquinolin-6-yl)methyl)-N6-(benzo[d]thiazol-2-ylmethyl)pyrimidine-4,6-diamine], 100 to 1000 nM.
In the case of `Cc1cc2c(N)nccc2c(C)c1CNc1cc(OCc2ccc3ncc(C(F)(F)F)cc3c2)cnn1` [Example 423, 5,7-dimethyl-6-(((5-((3-(trifluoromethyl)quinolin-6-yl)methoxy)pyridazin-3-yl)amino)methyl)isoquinolin-1-amine], the 50% effective concentration (EC50) was < 1 nM.
For the molecule `Cc1cc2c(N)nccc2c(C)c1CNc1cc(NCc2ccc3ncc(C(F)(F)F)cc3c2)ncn1` [Example 312, N^4-((1-amino-5,7-dimethylisoquinolin-6-yl)methyl)-N^6-((3-(trifluoromethyl)quinolin-6-yl)methyl)pyrimidine-4,6-diamine], the EC50 was < 1 nM.
In the case of `Cc1cc2c(N)nccc2c(C)c1CNC(=O)c1cnn(Cc2ccc(CC(=O)O)cc2)c1` [Example 131, 2-(4-((4-(((1-amino-5,7-dimethylisoquinolin-6-yl)methyl)carbamoyl)-1H-pyrazol-1-yl)methyl)phenyl)acetic acid], the concentration for a half-maximal effect (EC50) is 100 to 1000 nM.
Turning to `Cc1cc2c(N)nccc2c(C)c1CNc1cnnc(OCc2ccc(Cn3cccn3)cc2)c1` [Example 530, 6-(((6-((4-((1H-pyrazol-1-yl)methyl)benzyl)oxy)pyridazin-4-yl)amino)methyl)-5,7-dimethylisoquinolin-1-amine], the concentration for a half-maximal effect (EC50) lay in the range of 10 to 100 nM.
The result for `Cc1cc2c(N)nccc2c(C)c1CNc1cc(OCc2cn3cc(C4CC4)cnc3n2)nc(CCC(=O)O)n1` [Example 294, 3-(4-(((1-amino-5,7-dimethylisoquinolin-6-yl)methyl)amino)-6-((6-cyclopropylimidazo[1,2-a]pyrimidin-2-yl)methoxy)pyrimidin-2-yl)propanoic acid] reads < 1 nM; that for `Cc1cc2c(N)nccc2c(C)c1CNC(=O)c1cnn(Cc2cc3ccccc3s2)c1` [Example 84, N-((1-amino-5,7-dimethylisoquinolin-6-yl)methyl)-1-(benzo[b]thiophen-2-ylmethyl)-1H-pyrazole-4-carboxamide], 1 to 10 nM; that for `Cc1cc2c(N)nccc2c(C)c1CNC(=O)c1cnn(Cc2cn3cc(C4CC4)cc(Cc4nnco4)c3n2)c1` [Example 172, 1-((8-((1,3,4-oxadiazol-2-yl)methyl)-6-cyclopropylimidazo[1,2-a]pyridin-2-y1)methyl)-N-((1-amino-5,7-dimethylisoquinolin-6-y1)methyl)-1H-pyrazole-4-carboxamide], < 1 nM.
In the case of `Cc1cc2c(N)nccc2c(C)c1CNC(=O)c1cnn(Cc2ccc3ncc(C4CC4)cc3c2)c1` [Example 28, N-((1-amino-5,7-dimethylisoquinolin-6-yl)methyl)-1-((3-cyclopropylquinolin-6-yl)methyl)-1H-pyrazole-4-carboxamide], the concentration for a half-maximal effect (EC50) is < 1 nM.
With `Cc1cc2c(N)nccc2c(C)c1CNc1cc(NCc2ccc(Cc3cscn3)cc2)ncn1` [Example 350, N^4-((1-amino-5,7-dimethylisoquinolin-6-yl)methyl)-N^6-(4-(thiazol-4-ylmethyl)benzyl)pyrimidine-4,6-diamine], the concentration for a half-maximal effect (EC50) is < 1 nM.
On to `Cc1cc2c(N)nccc2c(C)c1CNC(=O)c1cn(Cc2ccc(CC(=O)N3CC4CC4C3)cc2)cc1F` (stereo not drawn) [Example I-479, 1-(4-(2-(3-azabicyclo[3.1.0]hexan-3-yl)-2-oxoethyl)benzyl)-N-((1-amino-5,7-dimethylisoquinolin-6-yl)methyl)-4-fluoro-1H-pyrrole-3-carboxamide], for which the half-maximal effective concentration (EC50) is < 1 nM.
To `Cc1cc2c(N)nccc2c(C)c1CNC(=O)c1cnn(Cc2ccc(Cc3cccn(C)c3=O)cc2)c1` [Example 30, N-((1-amino-5,7-dimethylisoquinolin-6-yl)methyl)-1-(4-((1-methyl-2-oxo-1,2-dihydropyridin-3-yl)methyl)benzyl)-1H-pyrazole-4-carboxamide] belongs < 1 nM.
For the molecule `COc1ccc2cc(Cn3cc(C(=O)NCc4c(C)cc5c(N)nccc5c4C)cn3)c(Cl)nc2c1` [Example 108, N-((1-amino-5,7-dimethylisoquinolin-6-yl)methyl)-1-((2-chloro-7-methoxyquinolin-3-yl)methyl)-1H-pyrazole-4-carboxamide], the EC50 was < 1 nM.
The result for `Cc1cc2c(N)nccc2c(C)c1CNc1cc(OCc2cn3cc(C4CC4)ccc3n2)nc(C(=O)O)n1` [Example 487, 4-(((1-amino-5,7-dimethylisoquinolin-6-yl)methyl)amino)-6-((6-cyclopropylimidazo[1,2-a]pyridin-2-yl)methoxy)pyrimidine-2-carboxylic acid] reads < 1 nM; that for `Cc1ccc2ncc(COc3cc(NCc4c(C)cc5c(N)nccc5c4C)ncn3)cc2c1` [Example 372, 5,7-dimethyl-6-(((6-((6-methylquinolin-3-yl)methoxy)pyrimidin-4-yl)amino)methyl)isoquinolin-1-amine formic acid salt], 1 to 10 nM.
To `Cc1ccc2nc(Cn3cc(C(=O)NCc4c(C)cc5c(N)nccc5c4C)cn3)nn2c1` [Example 15, N-((1-amino-5,7-dimethylisoquinolin-6-yl)methyl)-1-((6-methyl-[1,2,4]triazolo[1,5-a]pyridin-2-yl)methyl)-1H-pyrazole-4-carboxamide] belongs < 1 nM; to `Cc1cc2c(N)nccc2c(C)c1CNC(=O)c1cnn(Cc2ccc(CC(=O)NCc3ccccc3)cc2)c1` [Example 229, N-((1-amino-5,7-dimethylisoquinolin-6-yl)methyl)-1-(4-(2-(benzylamino)-2-oxoethyl)benzyl)-1H-pyrazole-4-carboxamide], 10 to 100 nM.
The result for `Cc1cc2c(N)nccc2c(C)c1CNc1cc(NCc2ccc(Cc3ccc(Cl)cn3)cc2)ncn1` [Example 369, N^4-((1-amino-5,7-dimethylisoquinolin-6-yl)methyl)-N^6(4-((5-chloropyridin-2-yl)methyl)benzyl)pyrimidine-4,6-diamine] reads 1 to 10 nM; that for `Cc1cc2c(N)nccc2c(C)c1CNc1cc(OCc2ccc(Cn3ccccc3=O)cc2)c(Cl)cn1` [Example I-456, 1-(4-(((2-(((1-amino-5,7-dimethylisoquinolin-6-yl)methyl)amino)-5-chloropyridin-4-yl)oxy)methyl)benzyl)pyridin-2(1H)-one], 1 to 10 nM; that for `Cc1cc2c(N)nccc2c(C)c1CNC(=O)c1ccnc(Cc2ccc(Cn3cccn3)cc2)c1` [Example 183], < 1 nM.
On to `Cc1cc2c(N)nccc2c(C)c1CNC(=O)c1cnn(Cc2ccc3cc(Cl)ccc3n2)c1` [Example 157, N-((1-amino-5,7-dimethylisoquinolin-6-yl)methyl)-1-((6-chloroquinolin-2-yl)methyl)-1H-pyrazole-4-carboxamide], for which the concentration giving a half-maximal response (EC50) lay in the range of 1 to 10 nM.
`Cc1ccc2nc(C(C)n3cc(C(=O)NCc4c(C)cc5c(N)nccc5c4C)cn3)cn2c1` (single isomer, unassigned) [Example 12, (S*)-N-((1-amino-5,7-dimethylisoquinolin-6-yl)methyl)-1-(1-(6-methylimidazo[1,2-a]pyridin-2-yl)ethyl)-1H-pyrazole-4-carboxamide]: the EC50 is < 1 nM.
Regarding `Cc1cc2c(N)nccc2c(C)c1CNc1cc(NCc2ccc(Cn3cc(Cl)cc(Cl)c3=O)cc2)ncn1` [Example I-463, 1-(4-(((6-(((1-amino-5,7-dimethylisoquinolin-6-yl)methyl)amino)pyrimidin-4-yl)amino)methyl)benzyl)-3,5-dichloropyridin-2(1H)-one], the concentration giving a half-maximal response (EC50) was < 1 nM.
For `Cc1cc2c(N)nccc2c(C)c1CNC(=O)c1cnn(Cc2ccc(C(F)(F)C(=O)N(C)C)cc2)c1` [Example 23, N-((1-amino-5,7-dimethylisoquinolin-6-yl)methyl)-1-(4-(2-(dimethylamino)-1,1-difluoro-2-oxoethyl)benzyl)-1H-pyrazole-4-carboxamide], the EC50 fell in the range of 10 to 100 nM.
On to `Cc1cc2c(N)nccc2c(C)c1CNC(=O)c1cnn(Cc2ccccc2C2CC2)c1` [Example 118, N-((1-amino-5,7-dimethylisoquinolin-6-yl)methyl)-1-(2-cyclopropylbenzyl)-1H-pyrazole-4-carboxamide], for which the 50% effective concentration (EC50) is 100 to 1000 nM.

For orientation: EC50 means the concentration at which the effect is half-maximal.

Source of the values: patent publication US20260374754A1, “N-((ISOQUINOLIN-6-YL)METHYL)-1H-PYRAZOLE-4-CARBOXAMIDE DERIVATIVES AS PLASMA KALLIKREIN INHIBITORS FOR THE TREATMENT OF HEREDITARY ANGIODEMA” (Takeda Pharmaceutical Company Limited, priority 2022, published 2026).
